Experimental data taken from patent US9555014B2, “Therapeutic regimens” (Radius Health, Inc., priority 2010, dated 2017).
Structures can show the parent of a compound that is named as a salt. Where two headings read alike, the source gives them in different places.

Key:
[1] = Phase 2a study: trough and peak plasma drug levels; assay type: in vivo, human (postmenopausal women); conditions: for concentration at 8 day / concentration at 15 day / concentration at 29 day: female, human, plasma; for concentration at 29 day: Day 29, ITT
Excerpt: This is a randomized, placebo-controlled, double-blind, parallel-group, Phase 2, multi-center, dose-finding study to evaluate the effects of (R)-6-(2-(ethyl(4-(2-(ethylamino)ethyl)benzyl)amino)-4-methoxyphenyl)-5,6,7,8-tetrahydronaphthalen-2-ol dihydrochloride in the treatment of vasomotor symptoms in postmenopausal women.
A total of 100 eligible patients will be randomized to receive one of 5 blinded treatment regimens. (R)-6-(2-(ethyl(4-(2-(ethylamino)ethyl)benzyl)amino)-4-methoxyphenyl)-5,6,7,8-tetrahydronaphthalen-2-ol dihydrochloride at doses 0, 10, 25, 50 or 100 mg will be dosed for 28-days.
(R)-6-(2-(ethyl(4-(2-(ethylamino)ethyl)benzyl)amino)-4-methoxyphenyl)-5,6,7,8-tetrahydronaphthalen-2-ol dihydrochloride was provided by sponsor in capsule form for oral administration. All doses (0, 10, 25, 50 and 100 mg) were provided as identical presentations. Each patient was provided with 2 containers of 28-capsules each at the start of treatment and took one capsule from each container every day for 28-days. Placebo contained the same excipients as active medication, but without (R)-6-(2-(ethyl(4-(2-(ethylamino)ethyl)benzyl)amino)-4-methoxyphenyl)-5,6,7,8-tetrahydronaphthalen-2-ol dihydrochloride. The patients were instructed to take the capsules orally in the fasted state (morning).
All efficacy endpoints were to be analyzed for the ITT and PP populations, with the exception of the drug levels (analyzed for the ITT population only). Safety endpoints were to be analyzed for the Safety/ITT population.
Values for ranges of steady state trough levels and steady state Cmax can be derived from Tables 4 and 5. Steady state values are the values listed for days 8 and 15. The ranges were derived from the mean number listed in the table plus or minus one standard deviation (the number in parenthesis after each mean value). For example a steady state trough level ranging from 0.11 ng/mL to 0.79 ng/mL is derived from Table 4 by taking the trough level for 10 mg, 0.45 ng/mL, adding 0.34 to get the upper value of 0.79 and subtracting 0.34 to get the lover value of 0.11. Other ranges for steady state trough levels and ranges for Cmax can be similarly derived from the data in Tables 4 and 5.

[2] = tested on: endometrium; experiment: Preclinical rat models measuring estrogenic agonist effects on the endometrium; assay type: in vivo
Excerpt: The results of a phase 2a clinical study assessing the effects of the selective estrogen receptor modulator (SERM) (R)-6-(2-(ethyl(4-(2-(ethylamino)ethyl)benzyl)amino)-4-methoxyphenyl)-5,6,7,8-tetrahydronaphthalen-2-ol on women suffering from hot flushes are reported herein.

CCNCCc1ccc(CN(CC)c2cc(OC)ccc2[C@@H]2CCc3cc(O)ccc3C2)cc1 [drug, (R)-6-(2-(ethyl(4-(2-(ethylamino)ethyl)benzyl)amino)-4-methoxyphenyl)-5,6,7,8-tetrahydronaphthalen-2-ol dihydrochloride]
Peak Level of drug ([1]; 10 mg daily PO, Day 1, ITT, mean (SD)): 0.56 (0.34) ng/mL | Peak Level of drug ([1]; 10 mg daily PO, Day 8, ITT, mean (SD)): 0.92 (0.52) ng/mL | Peak Level of drug ([1]; 10 mg daily PO, Day 15, ITT, mean (SD)): 0.92 (0.69) ng/mL | Peak Level of drug ([1]; 25 mg daily PO, Day 1, ITT, mean (SD)): 1.41 (0.63) ng/mL | Peak Level of drug ([1]; 25 mg daily PO, Day 8, ITT, mean (SD)): 2.53 (0.74) ng/mL | Peak Level of drug ([1]; 25 mg daily PO, Day 15, ITT, mean (SD)): 2.97 (1.09) ng/mL | Peak Level of drug ([1]; 50 mg daily PO, Day 1, ITT, mean (SD)): 2.83 (1.72) ng/mL | Peak Level of drug ([1]; 50 mg daily PO, Day 8, ITT, mean (SD)): 6.36 (2.58) ng/mL | Peak Level of drug ([1]; 50 mg daily PO, Day 15, ITT, mean (SD)): 6.22 (3.46) ng/mL | Peak Level of drug ([1]; 100 mg daily PO, Day 1, ITT, mean (SD)): 8.39 (4.04) ng/mL | Peak Level of drug ([1]; 100 mg daily PO, Day 8, ITT, mean (SD)): 15.47 (7.14) ng/mL | Peak Level of drug ([1]; 100 mg daily PO, Day 15, ITT, mean (SD)): 12.76 (5.28) ng/mL | concentration at 8 day ([1]; oral, 10 mg, derived from Table 4 (0.45 ± 0.34, Day 8), read-out: steady state trough level range (mean plus or minus one standard deviation)): 0.11 to 0.79 ng/mL | concentration at 8 day ([1]; 10 mg daily PO, Day 8, ITT, mean (SD), read-out: Mean Trough Level of Drug): 0.45 ng/mL | concentration at 15 day ([1]; 10 mg daily PO, Day 15, ITT, mean (SD), read-out: Mean Trough Level of Drug): 0.49 ng/mL | concentration at 29 day ([1]; 10 mg daily PO, mean (SD), read-out: Mean Trough Level of Drug): 0.34 ng/mL | concentration at 8 day ([1]; 25 mg daily PO, Day 8, ITT, mean (SD), read-out: Mean Trough Level of Drug): 1.33 ng/mL | concentration at 15 day ([1]; 25 mg daily PO, Day 15, ITT, mean (SD), read-out: Mean Trough Level of Drug): 1.49 ng/mL | concentration at 29 day ([1]; 25 mg daily PO, mean (SD), read-out: Mean Trough Level of Drug): 1.18 ng/mL | concentration at 8 day ([1]; 50 mg daily PO, Day 8, ITT, mean (SD), read-out: Mean Trough Level of Drug): 3.11 ng/mL | concentration at 15 day ([1]; 50 mg daily PO, Day 15, ITT, mean (SD), read-out: Mean Trough Level of Drug): 3.39 ng/mL | concentration at 29 day ([1]; 50 mg daily PO, mean (SD), read-out: Mean Trough Level of Drug): 3.23 ng/mL | concentration at 8 day ([1]; 100 mg daily PO, Day 8, ITT, mean (SD), read-out: Mean Trough Level of Drug): 6.91 ng/mL | concentration at 15 day ([1]; 100 mg daily PO, Day 15, ITT, mean (SD), read-out: Mean Trough Level of Drug): 6.66 ng/mL | concentration at 29 day ([1]; 100 mg daily PO, mean (SD), read-out: Mean Trough Level of Drug): 6.03 ng/mL | estrogen agonist stimulation effects on the endometrium [2]: negligible estrogen agonist stimulation effects
